Laboratory results reported in ChEMBL document CHEMBL3217734, “Sulfonyl-hydrazones of cyclic imides derivatives as potent inhibitors of the Mycobacterium tuberculosis protein tyrosine phosphatase B (PtpB)” (Medchemcomm, 2011).
pIC50, pKi: −log10 of the molar value. The source made the active and inactive calls. The rule behind the calls is not given here.

Experiments:
[1] = tested on: Mycobacterium tuberculosis; assay: Inhibition of N-terminal hexahistidine-tagged recombinant Mycobacterium tuberculosis PtpB expressed in Escherichia coli BL21(DE3) using p-nitrophenylphosphate as substrate at 25 uM measured for 10 mins by ELISA plate spectrophotometric analysis relative to control
[2] = Competitive inhibition of N-terminal hexahistidine-tagged recombinant Mycobacterium tuberculosis PtpB expressed in Escherichia coli BL21(DE3) using p-nitrophenylphosphate as substrate measured for 10 mins by Lineweaver-Burk plot analysis
[3] = Inhibition of N-terminal hexahistidine-tagged recombinant Mycobacterium tuberculosis PtpB expressed in Escherichia coli BL21(DE3) using p-nitrophenylphosphate as substrate measured for 10 mins by ELISA plate spectrophotometric analysis
[4] = molecular target: T1, Tyrosine-protein phosphatase non-receptor type 1 (Homo sapiens, UniProt P18031); assay: Inhibition of PTP1B (unknown origin) using p-nitrophenylphosphate as substrate measured for 10 mins by ELISA plate spectrophotometric analysis
T1 sequence (P18031 whole entry): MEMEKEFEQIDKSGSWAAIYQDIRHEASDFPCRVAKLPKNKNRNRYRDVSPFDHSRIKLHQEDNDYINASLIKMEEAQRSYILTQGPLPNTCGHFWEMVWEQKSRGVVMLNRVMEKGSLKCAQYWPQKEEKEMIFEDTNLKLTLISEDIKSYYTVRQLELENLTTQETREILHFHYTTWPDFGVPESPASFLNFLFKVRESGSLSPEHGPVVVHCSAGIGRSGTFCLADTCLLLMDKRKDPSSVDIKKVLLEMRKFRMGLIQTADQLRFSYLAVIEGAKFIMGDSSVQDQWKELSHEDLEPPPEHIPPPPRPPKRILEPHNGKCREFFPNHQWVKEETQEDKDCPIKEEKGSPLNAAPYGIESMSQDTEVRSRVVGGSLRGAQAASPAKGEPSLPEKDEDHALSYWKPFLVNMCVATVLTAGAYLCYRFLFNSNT

Row | Compound | inhibition [1] | pKi [2] | pIC50 [3] | pIC50 [4]
1 | CC12C=CC(O1)C1C(=O)N(c3ccc(S(=O)(=O)N/N=C/c4ccc([N+](=O)[O-])cc4)cc3)C(=O)C12 (stereo not drawn) | 32% | – | – | –
2 | CC12C=CC(O1)C1C(=O)N(c3ccc(S(=O)(=O)N4CCCC4)cc3)C(=O)C12 (stereo not drawn) | inactive | – | – | –
3 | O=C1C=CC(=O)N1c1ccccc1 | 27% | – | – | –
4 | COc1ccc(/C=N/NS(=O)(=O)c2ccc(N3C(=O)C4C5C=CC(C)(O5)C4C3=O)cc2)cc1 (stereo not drawn) | inactive | – | – | –
5 | O=C1c2cccc3c(Cl)ccc(c23)C(=O)N1Cc1ccc(S(=O)(=O)N2CCOCC2)cc1 | inactive | – | – | –
6 | CC12C=CC(O1)C1C(=O)N(c3ccc(S(=O)(=O)N/N=C/c4ccc(Cl)cc4)cc3)C(=O)C12 (stereo not drawn) | 59% | 5.60 | 4.68 | 4.39
7 | CC12C=CC(O1)[C@@H]1C(=O)N(c3ccc(S(=O)(=O)N/N=C/c4ccc(Br)cc4)cc3)C(=O)[C@@H]12 (stereo partly drawn) | 59% | 5.05 | 4.41 | 4.06
8 | CC12C=CC(O1)C1C(=O)N(c3ccc(S(=O)(=O)N/N=C/c4ccccc4)cc3)C(=O)C12 (stereo not drawn) | 59% | 5.15 | 4.74 | 5.15
9 | O=C1c2cccc3cccc(c23)C(=O)N1Cc1ccc(S(=O)(=O)N2CCCC2)cc1 | inactive | – | – | –
10 | O=C1C2C3C=CC(O3)C2C(=O)N1c1ccc(S(=O)(=O)N/N=C/c2ccc([N+](=O)[O-])cc2)cc1 (stereo not drawn) | 57% | 4.82 | 4.39 | 3.61
11 | O=C1c2cccc3cccc(c23)C(=O)N1Cc1ccc(S(=O)(=O)N2CCOCC2)cc1 | inactive | – | – | –
12 | CC12C=CC(O1)C1C(=O)N(c3ccc(S(=O)(=O)N/N=C/c4ccc(Cl)c(Cl)c4)cc3)C(=O)C12 (stereo not drawn) | 34% | – | – | –
13 | O=C1C2C3C=CC(O3)C2C(=O)N1c1ccc(S(=O)(=O)N2CCCC2)cc1 (stereo not drawn) | inactive | – | – | –
14 | Cc1ccc(/C=N/NS(=O)(=O)c2ccc(N3C(=O)C4C5C=CC(C)(O5)C4C3=O)cc2)cc1 (stereo not drawn) | 26% | – | – | –
15 | O=C1C=CC(=O)N1c1ccc(S(=O)(=O)Cl)cc1 | 14% | – | – | –
16 | CC12C=CC(O1)C1C(=O)N(c3ccc(S(=O)(=O)N4CCOCC4)cc3)C(=O)C12 (stereo not drawn) | inactive | – | – | –
